From the supplement of paper PMC10883282

Experiments:
Test in all cases: relative viability vs DMSO control (72 h) (fraction); higher = more viable cells
VA-ES-BJ = system: VA-ES-BJ
In short: (§1)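 Sarcoma cell lines were grown in 384-well plates seeded toward 80–90% confluence and exposed 24 h later to serially diluted compound. After 72 h at 37 °C and 5% CO2, with 0.1% DMSO vehicle and a 5 µM positive control on the plates, ATPLite was read. Relative viability, given as percent growth averaged over up to triplicate wells, was rescaled so that 1 is full and 0 is none.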

SK-LMS-1 = system: SK-LMS-1
In short: as §1

SW982 = system: SW982
In short: as §1

MES-SA = system: MES-SA
In short: as §1

SW1353 = system: SW1353
In short: as §1

SK-ES-1 = system: SK-ES-1
In short: as §1

RD-ES = system: RD-ES
In short: as §1

G401 = system: G401
In short: as §1

HT1080 = system: HT1080
In short: as §1

KHOS-240S = system: KHOS-240S
In short: as §1

SYO-1 = system: SYO-1
In short: as §1

RD = system: RD
In short: as §1

COc1cc2ncnc(Nc3ccc(F)c(Cl)c3)c2cc1OCCCN1CCOCC1 [Gefitinib]
Conditions	relative viability
G401, 0.00017 µM	1.01
G401, 0.00051 µM	1
G401, 0.00152 µM	0.9788
G401, 0.00457 µM	0.987
G401, 0.01372 µM	1
G401, 0.04115 µM	0.996
G401, 0.1235 µM	1
G401, 0.3704 µM	0.993
G401, 1.111 µM	0.984
G401, 3.333 µM	0.835
G401, 10 µM	0.582
HT1080, 0.00017 µM	1.05
HT1080, 0.00051 µM	1.1
HT1080, 0.00152 µM	1.04
HT1080, 0.00457 µM	1.07
HT1080, 0.01372 µM	1.06
HT1080, 0.04115 µM	1.03
HT1080, 0.1235 µM	1.047
HT1080, 0.3704 µM	1.07
HT1080, 1.111 µM	1.05
HT1080, 3.333 µM	1.04
HT1080, 10 µM	0.483
KHOS-240S, 0.00017 µM	1.01
KHOS-240S, 0.00051 µM	1.05
KHOS-240S, 0.00152 µM	1.01
KHOS-240S, 0.00457 µM	1.05
KHOS-240S, 0.01372 µM	1.03
KHOS-240S, 0.04115 µM	1.04
KHOS-240S, 0.1235 µM	1
KHOS-240S, 0.3704 µM	1.03
KHOS-240S, 1.111 µM	1.01
KHOS-240S, 3.333 µM	0.921
KHOS-240S, 10 µM	0.318
MES-SA, 0.00017 µM	0.97
MES-SA, 0.00051 µM	0.948
MES-SA, 0.00152 µM	0.959
MES-SA, 0.00457 µM	0.952
MES-SA, 0.01372 µM	0.937
MES-SA, 0.04115 µM	0.962
MES-SA, 0.1235 µM	0.969
MES-SA, 0.3704 µM	0.969
MES-SA, 1.111 µM	0.925
MES-SA, 3.333 µM	0.739
MES-SA, 10 µM	0.4455
RD, 0.00017 µM	1.03
RD, 0.00051 µM	1.04
RD, 0.00152 µM	1.03
RD, 0.00457 µM	1.04
RD, 0.01372 µM	0.995
RD, 0.04115 µM	1.01
RD, 0.1235 µM	1.03
RD, 0.3704 µM	1.01
RD, 1.111 µM	1.05
RD, 3.333 µM	1.05
RD, 10 µM	0.18
RD-ES, 0.00017 µM	0.944
RD-ES, 0.00051 µM	0.967
RD-ES, 0.00152 µM	0.954
RD-ES, 0.00457 µM	0.965
RD-ES, 0.01372 µM	0.97
RD-ES, 0.04115 µM	0.978
RD-ES, 0.1235 µM	0.973
RD-ES, 0.3704 µM	0.987
RD-ES, 1.111 µM	0.962
RD-ES, 3.333 µM	0.844
RD-ES, 10 µM	0.464
SK-ES-1, 0.00017 µM	0.989
SK-ES-1, 0.00051 µM	0.988
SK-ES-1, 0.00152 µM	1
SK-ES-1, 0.00457 µM	1.01
SK-ES-1, 0.01372 µM	0.9857
SK-ES-1, 0.04115 µM	1
SK-ES-1, 0.1235 µM	1.01
SK-ES-1, 0.3704 µM	0.958
SK-ES-1, 1.111 µM	0.864
SK-ES-1, 3.333 µM	0.599
SK-ES-1, 10 µM	0.168
SK-LMS-1, 0.00017 µM	1.07
SK-LMS-1, 0.00051 µM	1.09
SK-LMS-1, 0.00152 µM	1.05
SK-LMS-1, 0.00457 µM	1.08
SK-LMS-1, 0.01372 µM	1.07
SK-LMS-1, 0.04115 µM	1.08
SK-LMS-1, 0.1235 µM	1.06
SK-LMS-1, 0.3704 µM	1.04
SK-LMS-1, 1.111 µM	1.05
SK-LMS-1, 3.333 µM	0.902
SK-LMS-1, 10 µM	0.108
SW982, 0.00017 µM	0.997
SW982, 0.00051 µM	1.01
SW982, 0.00152 µM	1.01
SW982, 0.00457 µM	1
SW982, 0.01372 µM	1
SW982, 0.04115 µM	1.012
SW982, 0.1235 µM	0.998
SW982, 0.3704 µM	0.989
SW982, 1.111 µM	0.957
SW982, 3.333 µM	0.675
SW982, 10 µM	0.268
SW1353, 0.00017 µM	1.03
SW1353, 0.00051 µM	1.073
SW1353, 0.00152 µM	0.999
SW1353, 0.00457 µM	1.02
SW1353, 0.01372 µM	1.02
SW1353, 0.04115 µM	0.979
SW1353, 0.1235 µM	0.93
SW1353, 0.3704 µM	0.903
SW1353, 1.111 µM	0.928
SW1353, 3.333 µM	0.892
SW1353, 10 µM	0.168
SYO-1, 0.00017 µM	1.01
SYO-1, 0.00051 µM	1.02
SYO-1, 0.00152 µM	0.999
SYO-1, 0.00457 µM	0.998
SYO-1, 0.01372 µM	0.999
SYO-1, 0.04115 µM	0.9815
SYO-1, 0.1235 µM	1
SYO-1, 0.3704 µM	0.983
SYO-1, 1.111 µM	0.955
SYO-1, 3.333 µM	0.829
SYO-1, 10 µM	0.104
VA-ES-BJ, 0.00017 µM	1.05
VA-ES-BJ, 0.00051 µM	1.05
VA-ES-BJ, 0.00152 µM	1.074
VA-ES-BJ, 0.00457 µM	1.04
VA-ES-BJ, 0.01372 µM	1.04
VA-ES-BJ, 0.04115 µM	1.05
VA-ES-BJ, 0.1235 µM	1.05
VA-ES-BJ, 0.3704 µM	1.06
VA-ES-BJ, 1.111 µM	1.06
VA-ES-BJ, 3.333 µM	1.04
VA-ES-BJ, 10 µM	0.75
